Assays:
[1] = Diuretic effects of GLP-1 or exendin in anesthetized rats (urine flow, sodium excretion, urinary potassium after intravenous bolus); assay type: in vivo, Male, Harlan Sprague Dawley rats
Procedure: Surgical preparation: The preparation used here was as described in Young et al., (Drug Dev Res. 37:231-248, 1996), but modified by the addition of unilateral ureteral cannulation. Anesthesia was induced with 5% halothane, maintained with 2% halothane during surgery and with 0.7 to 1% thereafter. Tracheotomy and cannulation of a femoral artery, saphenous vein and a single ureter were performed. […] The venous line was used for drug administration. Total saline infusion rate was kept at 4 mL/hr.
Observations are expressed as the percent of baseline, defined as the mean of measurements made in the 30 min prior to starting peptide or vehicle infusion. Data are expressed as mean±SEM. n=5-6.
Unilateral urine flow was measured by weighing the 15-minute output of the cannulated ureter. Total urine flow was estimated as twice this amount.
Treatments: To obtain dose-responses, peptides were dissolved in 0.15 M NaCl and administered as 0.1 ml bolus.

[2] = Arterial blood pressure and dP/dt in conscious rats by telemetry; assay type: in vivo, Male, Harlan Sprague Dawley rats; conditions: single intraperitoneal (ip) injection (100 µl)
Description: Insertion of Transducers: Male, Harlan Sprague Dawley rats were anesthetized with halothane and the abdominal aorta exposed after laparotomy. According to procedures detailed in the "Pressure Telemetry" manual from Data Sciences Inc., pressure transducer/transmitters were secured in place on the abdominal wall with the catheter tip in the abdominal aorta ~2mm above bifurcation. Following closure, the animals then recovered to allow at least 7 days of stable recordings. Baseline data were collected during the 7+ days after surgery.
The transmitted signals were recorded via telemetry and stored on a personal computer. Rate of pressure change, dP/dt, was calculated by software provided by Data Sciences.

For CC[C@H](C)[C@H](NC(=O)[C@H](Cc1ccccc1)NC(=O)[C@H](CCC(=O)O)NC(=O)[C@H](CCCCN)NC(=O)[C@H](C)NC(=O)[C@H](C)NC(=O)[C@H](CCC(N)=O)NC(=O)CNC(=O)[C@H](CCC(=O)O)NC(=O)[C@H](CC(C)C)NC(=O)[C@H](Cc1ccc(O)cc1)NC(=O)[C@H](CO)NC(=O)[C@H](CO)NC(=O)[C@@H](NC(=O)[C@H](CC(=O)O)NC(=O)[C@H](CO)NC(=O)[C@@H](NC(=O)[C@H](Cc1ccccc1)NC(=O)[C@@H](NC(=O)CNC(=O)[C@H](CCC(=O)O)NC(=O)[C@H](C)NC(=O)[C@@H](N)Cc1c[nH]cn1)[C@@H](C)O)[C@@H](C)O)C(C)C)C(=O)N[C@@H](C)C(=O)N[C@@H](Cc1c[nH]c2ccccc12)C(=O)N[C@@H](CC(C)C)C(=O)N[C@H](C(=O)N[C@@H](CCCCN)C(=O)NCC(=O)N[C@@H](CCCNC(=N)N)C(N)=O)C(C)C [GLP-1], the sodium excretion [1] was “increased”, the “cardiac contractility (dP/dt)” value [2] was “increase” and the mean arterial pressure [2] was “increase”.

Source: EP1054594B1, “INOTROPIC AND DIURETIC EFFECTS OF EXENDIN AND GLP-1” (AMYLIN PHARMACEUTICALS, INC., priority 1998, dated 2007)
